# Experimental data reported in patent US20240043373A1, “COMPOSITIONS AND METHODS FOR TREATING AMYLOID-RELATED CONDITIONS” (The Regents of the University of California, priority 2020, published 2024).
# Entries after “also recorded” stand apart in the source; their conditions may differ.
# Columns and labels:
# sAPPα [1] = assay: sAPPα AlphaLISA in SH-SY5Y cells; type: cell-based, human; conditions: for sAPPα levels after 24 h: SH-SY5Y, after 24 h (FIG. 12B); for sAPPα in SH-SY5Y cells: SH-SY5Y 150 K/well, 1, 5, 10 and 50 μM, 24 hours, AlphaLISA
# Protocol: Media (20 μL) was collected every 2 h for 24 h (plate was shaken prior to media collection to disburse sAPPα) from each treatment group.
# p-GSK3β (Ser 9) [2] = assay: phospho GSK3β / total GSK3β western blot in SH-SY5Y cells; type: cell-based, human; conditions: SH-SY5Y 100 k/well, 5 uM
# Description: FIG. 14B is a graph showing each blot normalized to actin levels.
# FIG. 16C is a graph decpiting the normalized to actin levels and the ratio of (phosphor-GSK3β/Actin) to (Total-GSK3β/Actin) from the Western blots in FIGS. 16A & B, calculated by densitometry.
# sAPPα [3] = assay: Primary HTS: sAPPα AlphaLISA in CHO-7W cells; type: cell-based, Chinese Hamster
# Protocol: A HTS of portions of the UCLA compound library was undertaken. The primary HTS was carried out at the MSSR facility at UCLA using CHO-7W cells. An initial screen of approximately 7000 compounds was performed using the NIH and NPW libraries, 3 plates from the targeted libraries (TAR), full LOPAC and NKIL libraries, and four plates from the Emerald/Synergy (ES) library. CHO-7W cells (5 K/well) were treated with 5 μM compounds for 48 h followed by collection of media and determination of sAPPα using an AlphaLISA.
# BAP31 [4] = assay: Quantitative global proteomics (LC-MS/MS) of treated SH-SY5Y cells; type: cell-based, human; conditions: treated vs vehicle (DMSO) SH-SY5Y cells
# Protocol: Tryptic peptides were subsequently labeled with isobaric tandem mass tags (ThermoFischer Scientific) to provide relative quantitation between samples, and then fractionated using high pH reverse-phase chromatography for increased proteome coverage. The multiplexed samples were analyzed by liquid chromatography tandem mass spectrometry (LC-MS/MS).
# BAP31 [5] = assay: BAP31 immunoblot (WB) in SH-SY5Y cells; type: cell-based, human; conditions: SH-SY5Y after treatment
# RTN3 monomer = RTN3 monomer immunoblot (WB) in SH-SY5Y cells
# RTN3 = assay: Oral treatment of ApoE4:5xFAD mice, brain RTN3; type: in vivo; conditions: E4:FAD mice, orally 4 mg/kg for 18 days
# sAPPα [6] = assay: Oral treatment of ApoE4:5xFAD mice, brain sAPPα; type: in vivo; conditions: E4:FAD mice, orally 4 mg/kg for 18 days
# p-GSK3β = assay: Oral treatment of ApoE4:5xFAD mice, brain p-GSK3β; type: in vivo; conditions: E4:FAD mice, orally 4 mg/kg for 18 days
# p-GSK3β (Ser 9) [7] = conditions: Deng et al., 2015; used at 25 nM as positive control; cited from earlier work
molecule,measurement,setting,value
"COc1cc(C(=O)OCCCN2CCCN(CCCOC(=O)c3cc(OC)c(OC)c(OC)c3)CC2)cc(OC)c1OC (racemic) [DDL-402, Dilazep]",sAPPα levels after 24 h,sAPPα [1],significantly increased
same,ratio (phospho-GSK3β/Actin) to (Total-GSK3β/Actin),p-GSK3β (Ser 9) [2]; 18 h,trend to increase in p-GSK3β
"CC(Cc1ccccc1)(NC(=O)CN)c1ccccc1 (centres unmarked) [DDL-401, Remacemide]",enhancement of sAPPα in CHO-7W cells,"sAPPα [3]; CHO cells stably expressing human APP, initial HTS",enhancer of sAPPα
same,percent increase in sAPPα levels normalized to control in HTS,"sAPPα [3]; CHO-7W cells 5 K/well, 5 μM compound, 48 h, AlphaLISA",> 25%
same,sAPPα in SH-SY5Y cells,sAPPα [1],significantly (p>0.01) increased; also recorded: increased sAPPα
same,sAPPα in SH-SY5Y cells,sAPPα [1]; listed as Remacemide,sAPPα increase
same,time course of sAPPα in media,"sAPPα [1]; SH-SY5Y 400,000/well, 5 μM, media collected every 2 h for 24 h, vs DMSO",time dependent increase in sAPPα
same,sAPPα levels after 24 h,sAPPα [1],significantly increased
same,levels of tryptic peptides corresponding to BAP31 (MS/MS),BAP31 [4],increase in the levels of tryptic peptides
same,BAP31 by WB,BAP31 [5],no significant increase
same,concentration giving a modest increase in RTN3 monomer levels,"RTN3 monomer; SH-SY5Y, WB",≥ 10 µM
"CN1[C@@H]2CC[C@H]1C[C@@H](OC(=O)c1c[nH]c3ccccc13)C2 [F03, Tropisetron]",phosphorylation of GSK3β,p-GSK3β (Ser 9) [2]; 12 h or 18 h,increases phosphorylation of GSK3β
same,RTN3 levels in the brain,RTN3,slightly enhanced
same,sAPPα in brain,sAPPα [6],slight increase
same,p-GSK3β in brain,p-GSK3β,bigger increase
same,level of RTN3 monomer (~25 kD),"RTN3 monomer; SH-SY5Y 100 k/well, 5 uM, 12 h, vs DMSO or untreated",trended to increase
sAPPα: recombinant sAPPα (25 nM) used as a positive control for GSK3β phosphorylation,"phosphorylation of GSK3β (positive control, literature)",p-GSK3β (Ser 9) [7],increase the phosphorylation of GSK3β
